Patent publication EP4755888A1 (ILAb Co., Ltd., priority 2023, dated 2025)

Biological target: PD-1/PD-L1 (Homo sapiens, UniProt Q9NZQ7)
Test: TR-FRET PD-1/PD-L1 binding inhibition at the molecular level (free proteins)
Conditions: Tag1-PD-L1 and Tag2-PD-1 proteins, twelve concentrations from 200 nM, 2 hours at room temperature, read-out: FRET assay (IC50)
Experimental: In order to evaluate the inhibitory activity of the compounds synthesized according to the above Preparation Examples against PD-1/PD-L1 molecules in a free protein state,a TR-FRET (Time-Resolved Fluorescence Energy Transfer) experimetn was performed as described below.
Specifically, the compounds were prepared in a 96-well plate by serial dilution starting from 200 nM with 1/2 dilutions to obtain a total of twelve concentrations, and 2 µL of each compound solution was added to a 384-well plate. Thereafter, Tag1-PD-L1 protein and Tag2-PD-1 protein were each prepared at a 1x concentration, mixed at a ratio of 1:1, and 8 µL of the mixed solution was added to each well of the 384-well plate containing the compounds. Anti-Tag1 Eu Cryptate reagent and Anti-Tag2 XL665 antibody were each prepared at a 1* concentration, mixed at a ratio of 1:1, and 10 µL of the mixed solution was added to each well of the 384-well plate containing the compounds and proteins, followed by incubation at room temperature for 2 hours. Upon completion of the reaction, fluorescence signals at wavelengths of 620 nm and 665 nm were measured using a microplate reader.

Sequence of PD-1/PD-L1 (Q9NZQ7 19-238 limits assumed): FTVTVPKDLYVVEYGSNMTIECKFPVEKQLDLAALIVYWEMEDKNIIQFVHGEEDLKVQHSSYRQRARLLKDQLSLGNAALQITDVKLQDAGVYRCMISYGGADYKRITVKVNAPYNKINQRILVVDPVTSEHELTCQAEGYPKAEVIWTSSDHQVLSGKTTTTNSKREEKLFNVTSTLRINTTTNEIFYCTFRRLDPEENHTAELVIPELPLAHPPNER

Compound	IC50
O=C(Nc1cccc(-c2cccc(Nc3nc(C(F)F)nc4cc(CN5CC[C@@H](O)C5)cnc34)c2Cl)c1Cl)c1cc2n(n1)CCC[C@@H]2N1CC(C(=O)O)C1 (stereo in doubt) [Compound 262, 1-((S)-2-((2,2'-dichloro-3'-((2-(difluoromethyl)-7-(((R)-3-hydroxypyrrolidin-1-yl)methyl)pyrido[3,2-d]pyrimidin-4-yl)amino)-[1,1'-biphenyl]-3-yl)carbamoyl)-4,5,6,7-tetrahydropyrazolo[1,5-a]pyridin-4-yl)azetidine-3-carboxylic acid]	10 to 100 nM
Cc1c(NC(=O)c2cc3n(n2)CCC[C@@H]3N2CCC(O)CC2)cccc1-c1cccc(Nc2nc(C(F)(F)F)nc3cccnc23)c1C (stereo in doubt) [Compound 286, (S)-N-(2,2'-dimethyl-3'-((2-(trifluoromethyl)pyrido[3,2-d]pyrimidin-4-yl)amino)-[1,1'-biphenyl]-3-yl)-4-(4-hydroxypiperidin-1-yl)-4,5,6,7-tetrahydropyrazolo[1,5-a]pyridine-2-carboxamide]	10 to 100 nM
O=C(Nc1cccc(-c2cccc(Nc3nc(C(F)F)nc4cccnc34)c2Cl)c1Cl)c1cc2n(n1)CCC[C@@H]2N1CCC(C(=O)O)CC1 (stereo in doubt) [Compound 290, (S)-1-(2-((2,2'-dichloro-3'-((2-(difluoromethyl)pyrido[3,2-d]pyrimidin-4-yl)amino)-[1,1'-biphenyl]-3-yl)carbamoyl)-4,5,6,7-tetrahydropyrazolo[1,5-a]pyridin-4-yl)piperidine-4-carboxylic acid]	10 to 100 nM
O=C(O)CN[C@H]1CCCn2nc(C(=O)Nc3cccc(-c4cccc(Nc5nc(C(F)F)nc6cc(CN7CC[C@@H](O)C7)cnc56)c4Cl)c3Cl)cc21 (stereo in doubt) [Compound 294, 2-(((S)-2-((2,2'-dichloro-3'-((2-(difluoromethyl)-7-(((R)-3-hydroxypyrrolidin-1-yl)methyl)pyrido[3,2-d]pyrimidin-4-yl)amino)-[1,1'-biphenyl]-3-yl)carbamoyl)-4,5,6,7-tetrahydropyrazolo[1,5-a]pyridin-4-yl)amino)acetic acid]	10 to 100 nM
CC(C)c1nc(Nc2cccc(-c3cccc(NC(=O)c4cc5n(n4)CCC[C@@H]5N4CCC(C(=O)O)CC4)c3Cl)c2Cl)c2ncccc2n1 (stereo in doubt) [Compound 298, (S)-1-(2-((2,2'-dichloro-3'-((2-isopropylpyrido[3,2-d]pyrimidin-4-yl)amino)-[1,1'-biphenyl]-3-yl)carbamoyl)-4,5,6,7-tetrahydropyrazolo[1,5-a]pyridin-4-yl)piperidine-4-carboxylic acid]	10 to 100 nM
CC(C)c1nc(Nc2cccc(-c3cccc(NC(=O)c4cc5n(n4)CCC[C@@H]5NC(C)(C)C(=O)O)c3Cl)c2Cl)c2ncccc2n1 (stereo in doubt) [Compound 300, (S)-2-((2-((2,2'-dichloro-3'-((2-isopropyl-pyrido[3,2-d]pyrimidin-4-yl)amino)-[1,1'-biphenyl]-3-yl)carbamoyl)-4,5,6,7-tetrahydropyrazolo[1,5-a]pyridin-4-yl)amino)-2-methylpropanoic acid]	10 to 100 nM
O=C(Nc1cccc(-c2cccc(Nc3nc(C(F)F)nc4cccnc34)c2Cl)c1Cl)c1cc2n(n1)CCC[C@@H]2N1CCC(O)CC1 (stereo in doubt) [Compound 306, (S)-N-(2,2'-dichloro-3'-((2-(difluoromethyl)pyrido[3,2-d]pyrimidin-4-yl)amino)-[1,1'-biphenyl]-3-yl)-4-(4-hydroxypiperidin-1-yl)-4,5,6,7-tetrahydropyrazolo[1,5-a]pyridine-2-carboxamide]	10 to 100 nM
Cc1c(NC(=O)c2cc3n(n2)CCC[C@H]3N2CCC(C(=O)O)CC2)cccc1-c1cccc(Nc2nc(C(F)(F)F)nc3cc(CN4CC[C@@H](O)C4)cnc23)c1C (stereo in doubt) [Compound 343, 1-((R)-2-((3'-((7-(((R)-3-hydroxypyrrolidin-1-yl)methyl)-2-(trifluoromethyl)pyrido[3,2-d]pyrimidin-4-yl)amino)-2,2'-dimethyl-[1,1'-biphenyl]-3-yl)carbamoyl)-4,5,6,7-tetrahydropyrazolo[1,5-a]pyridin-4-yl)piperidine-4-carboxylic acid]	10 to 100 nM
Cc1c(NC(=O)c2cc3n(n2)CCCC3=O)cccc1-c1cccc(NC(=O)c2cc3n(n2)CCCC3=O)c1C [Compound 1, N,N'-(2,2'-dimethyl-[1,1'-biphenyl]-3,3'-diyl)bis(4-oxo-4,5,6,7-tetrahydropyrazolo[1,5-a]pyridine-2-carboxamide)]	< 10 nM
Cc1c(NC(=O)c2cc3n(n2)CCCC3=O)cccc1-c1cccc(NC(=O)c2cc3n(n2)CCCC3O)c1C (centres unmarked) [Compound 2, N-(2,2'-dimethyl-3'-(4-oxo-4,5,6,7-tetrahydropyrazolo[1,5-a]pyridine-2-carboxamido)-[1,1'-biphenyl]-3-yl)-4-hydroxy-4,5,6,7-tetrahydropyrazolo[1,5-a]pyridine-2-carboxamide]	< 10 nM
Cc1c(NC(=O)c2cc3n(n2)CCCC3O)cccc1-c1cccc(NC(=O)c2cc3n(n2)CCCC3O)c1C (centres unmarked) [Compound 2-1, N,N'-(2,2'-dimethyl-[1,1'-biphenyl]-3,3'-diyl)bis(4-hydroxy-4,5,6,7-tetrahydropyrazolo[1,5-a]pyridine-2-carboxamide)]	< 10 nM
Cc1c(NC(=O)c2cc3n(n2)CCCC3=O)cccc1-c1cccc(NC(=O)c2cc3n(n2)CCCC3NCCO)c1C (centres unmarked) [Compound 3, N-(2,2'-dimethyl-3'-(4-oxo-4,5,6,7-tetrahydropyrazolo[1,5-a]pyridine-2-carboxamido)-[1,1'-biphenyl]-3-yl)-4-((2-hydroxyethyl)amino)-4,5,6,7-tetrahydropyrazolo[1,5-a]pyridine-2-carboxamide]	< 10 nM
Cc1c(NC(=O)c2cc3n(n2)CCCC3O)cccc1-c1cccc(NC(=O)c2cc3n(n2)CCCC3NCCO)c1C (centres unmarked) [Compound 3-1, 4-hydroxy-N-(3'-(4-((2-hydroxyethyl)amino)-4,5,6,7-tetrahydropyrazolo[1,5-a]pyridine-2-carboxamido)-2,2'-dimethyl-[1,1'-biphenyl]-3-yl)-4,5,6,7-tetrahydropyrazolo[1,5-a]pyridine-2-carboxamide]	< 10 nM
CC(=O)NCCNC1CCCn2nc(C(=O)Nc3cccc(-c4cccc(NC(=O)c5cc6n(n5)CCCC6NCCNC(C)=O)c4C)c3C)cc21 (centres unmarked) [Compound 5, N,N'-(2,2'-dimethyl-[1,1'-biphenyl]-3,3'-diyl)bis(4-((2-acetamidoethyl)amino)-4,5,6,7-tetrahydropyrazolo[1,5-a]pyridine-2-carboxamide)]	< 10 nM
Cc1c(NC(=O)c2cc3n(n2)CCCC3NCCO)cccc1-c1cccc(NC(=O)c2cc3n(n2)CCCC3NCCO)c1C (centres unmarked) [Compound 6, N,N'-(2,2'-dimethyl-[1,1'-biphenyl]-3,3'-diyl)bis(4-((2-hydroxyethyl)amino)-4,5,6,7-tetrahydropyrazolo[1,5-a]pyridine-2-carboxamide)]	< 10 nM
O=C(O)CNC1CCCn2nc(C(=O)Nc3cccc(-c4cccc(NC(=O)c5cc6n(n5)CCCC6NCC(=O)O)c4Cl)c3Cl)cc21 (centres unmarked) [Compound 8, 2-[[2-[[3-[3-[[4-(carboxymethylamino)-4,5,6,7-tetrahydropyrazolo[1,5-a]pyridine-2-carbonyl]amino]-2-chlorophenyl]-2-chlorophenyl]carbamoyl]-4,5,6,7-tetrahydropyrazolo[1,5-a]pyridin-4-yl]amino]acetic acid]	< 10 nM
Cc1c(NC(=O)c2cc3n(n2)CCCC3O)cccc1-c1cccc(Nc2nccc3cc(CN4CC[C@@H](O)C4)cnc23)c1C (stereo partly drawn) [Compound 11, 4-hydroxy-N-(3'-((3-(((R)-3-hydroxypyrrolidin-1-yl)methyl)-1,7-naphthyridin-8-yl)amino)-2,2'-dimethyl-[1,1'-biphenyl]-3-yl)-4,5,6,7-tetrahydropyrazolo[1,5-a]pyridine-2-carboxamide]	< 10 nM
CC(=O)NCCNC1CCCn2nc(C(=O)Nc3cccc(-c4cccc(Nc5nccc6cc(CN7CC[C@@H](O)C7)cnc56)c4C)c3C)cc21 (stereo partly drawn) [Compound 12, 4-((2-acetamidoethyl)amino)-N-(3'-((3-(((R)-3-hydroxypyrrolidin-1-yl)methyl)-1,7-naphthyridin-8-yl)amino)-2,2'-dimethyl-[1,1'-biphenyl]-3-yl)-4,5,6,7-tetrahydropyrazolo[1,5-a]pyridine-2-carboxamide]	< 10 nM
Cc1c(NC(=O)c2cc3n(n2)CCCC3N2CC[C@@H](O)C2)cccc1-c1cccc(Nc2nccc3cc(CN4CC[C@@H](O)C4)cnc23)c1C (stereo partly drawn) [Compound 13, 4-((R)-3-hydroxypyrrolidin-1-yl)-N-(3'-((3-(((R)-3-hydroxypyrrolidin-1-yl)methyl)-1,7-naphthyridin-8-yl)amino)-2,2'-dimethyl-[1,1'-biphenyl]-3-yl)-4,5,6,7-tetrahydropyrazolo[1,5-a]pyridine-2-carboxamide]	< 10 nM
Cc1c(NC(=O)c2cc3n(n2)CCCC3NCCO)cccc1-c1cccc(Nc2nccc3cc(CN4CC[C@@H](O)C4)cnc23)c1C (stereo partly drawn) [Compound 14, 4-((2-hydroxyethyl)amino)-N-(3'-((3-(((R)-3-hydroxypyrrolidin-1-yl)methyl)-1,7-naphthyridin-8-yl)amino)-2,2'-dimethyl-[1,1'-biphenyl]-3-yl)-4,5,6,7-tetrahydropyrazolo[1,5-a]pyridine-2-carboxamide]	< 10 nM
